Laboratory results published in patent US9801854B1, “Slow release formulations of cell cycle regulators and anti-cancer agents for local treatment of solid cancer” (THERACOAT LTD., priority 2014, dated 2017).
Like-named read-outs stand apart in the source and are kept apart here.

Legend:
Format in all cases: cell-based, human
UM-UC-3 cells [1] = assay: Cell cycle analysis by flow cytometry (PI staining) after HU exposure and withdrawal; settings: 1 mM HU for 20 hours, wash, 2-10 hours without drug, majority in S phase 4 to 8 hours after wash
Procedure: (§1) The human bladder cancer cell lines, UM-UC-3 and RT-4, were obtained from the ATCC and grown in RPMI 1640 medium (Gibco) supplemented with 10% v/v fetal calf serum (Gibco), 100 U/ml penicillin and 100 µg/ml streptomycin (Biological Industries). Cells were grown at 37° C., 5% CO2 in a humidified atmosphere and harvested using 0.25% w/v trypsin, 0.02% w/v EDTA. Cells were washed in media to inactivate trypsin before reseeding or analysis. A LSRII Flow cytometer or Cyan Flow Cytometer were used for determining DNA content and cell cycle distribution of UM-UC-3 and RT-4 cells. Cells were seeded in 6 well plates (10^6 cells/well) and incubated overnight. […] When sequential treatment was done, the second drug was administered immediately or 2-48 hours following the wash of the 1st treatment. The 2nd treatment was then applied for additional 2-48 hrs before analysis. […] PI staining was identified by using the red fluorescence (585+/−40 nm). In some experiments, cells harvested as for cell cycle determination were also stained with Annexin V or anti-activated Caspase-3 antibody for identifying apoptotic cells. Annexin V or activated Caspase-3 positive cells were identified using the green fluorescence (530+/−30 nm).

RT-4 cells = assay: as above; settings: 1 mM HU for 20 hours, wash, 2-10 hours without drug, majority in S phase 4 to 8 hours after wash
Procedure: as §1

UM-UC-3 cells [2] = assay: XTT cytotoxicity assay; settings: for viability at 1000 µM: Homo sapiens, 1 mM HU 20 hours, wash, untreated cells = 100%; for EC50: read-out: EC50 (cell viability)
Procedure: Cells were washed in media to inactivate trypsin before reseeding or analysis.
Hydroxyurea concentrations were selected based upon concentration ranges known in the art.
XTT assay for cytotoxicity was then performed and plates were analyzed in an ELISA reader at a wave length of 490 nm.
Cells were pretreated with 1 mM HU (or DMSO-vehicle control) for 20 hours. […] The percentage of viable cells presented was calculated from untreated cells with viability of 100%.
UM-UC-3 cells were cultured in 96 well microculture plates. Cells were pretreated with 1 mM HU (or DMSO-vehicle control) for 20 hours. Cells were then washed. […] The percentage of viable cells presented was calculated from untreated cells with viability of 100%.
The methods used were as described in the other examples. Briefly, UM-UC-3 cells were cultured in 96 well microculture plates. Cells were pretreated with 1 mM HU (or DMSO-vehicle control) for 2 hours. […] The percentage of viable cells presented in the figures and table was calculated from untreated cells with viability of 100%.

SMILES	cell cycle arrest / synchronization in S phase (UM-UC-3 cells [1])	cell cycle arrest / synchronization in S phase (RT-4 cells)	viability at 1000 µM (UM-UC-3 cells [2]; UMUC3, Example 3: UM-UC-3, 20 μM MMC, XTT 24 hours after MMC addition) [%]	viability at 1000 µM (UM-UC-3 cells [2]; UMUC3, Example 4: UM-UC-3, 2 hours delay, 10 μM MMC 8 hours, XTT 48 hours after MMC addition) [%]	EC50 (UM-UC-3 cells [2]; Example 3 conditions: UM-UC-3, MMC 24 hours, XTT) [µM]	EC50 (UM-UC-3 cells [2]; Example 4 conditions: UM-UC-3, MMC 8 hours, XTT 48 hours after MMC addition) [µM]
NC(=O)NO [HU, Hydroxyurea]	cell cycle synchronization at the S phase	cell cycle synchronization at the S phase	76.5	59.6		
CO[C@@]12[C@H](COC(N)=O)C3=C(C(=O)C(C)=C(N)C3=O)N1C[C@@H]1N[C@@H]12 [MMC, Mitomycin C]					~20	10
